Legend:
KP1005 (CTX-M-14) [1] = assay: Aztreonam potentiation (MPC@4), KP1005; assay type: cell-based; conditions: BLI with aztreonam at 4 μg/mL
KP1009 (CTX-M-15) [2] = assay: organism not typed; assay type: cell-based
ec308 (SHV-5) [3] = assay: Aztreonam potentiation (MPC@4), ec308; assay type: cell-based; conditions: BLI with aztreonam at 4 μg/mL
KP1010 (SHV-12) [4] = assay: Aztreonam potentiation (MPC@4), KP1010; assay type: cell-based
ECL1002 [5] = assay: Aztreonam potentiation (MPC@4), ECL1002; assay type: cell-based; conditions: BLI with aztreonam at 4 μg/mL
EC1010 (CMY-6) [6] = assay: organism not typed; assay type: cell-based
KP1005 (CTX-M-14) [7] = assay: Tigemonam potentiation (MPC@4), KP1005; assay type: cell-based; conditions: BLI with tigemonam at 4 μg/mL
KP1009 (CTX-M-15) [8] = assay: Tigemonam potentiation (MPC@4), KP1009; assay type: cell-based; conditions: BLI with tigemonam at 4 μg/mL
ec308 (SHV-5) [9] = assay: Tigemonam potentiation (MPC@4), ec308; assay type: cell-based
KP1010 (SHV-12) [10] = assay: Tigemonam potentiation (MPC@4), KP1010; assay type: cell-based
ec302 (TEM-10) [11] = assay: Tigemonam potentiation (MPC@4), ec302; assay type: cell-based
ECL1002 [12] = assay: Tigemonam potentiation (MPC@4), ECL1002; assay type: cell-based; conditions: BLI with tigemonam at 4 μg/mL
Pa AmpC = Pa AmpC (Pseudomonas aeruginosa, UniProt P24735); assay: Ki, nitrocefin cleavage by purified enzyme, Pa AmpC; assay type: biochemical; conditions: nitrocefin reporter substrate; read-out: Ki (Pa AmpC, NCF)
Method in brief: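 Nitrocefin hydrolysis by purified β-lactamase is followed at 490 nm every 10 sec for 10 min. Before substrate is added, enzyme sits with varying inhibitor concentrations for 10 min at room temperature. Ki comes from these cleavage profiles.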

KP1004 (KPC-2) = assay: Biapenem potentiation (MPC@1), KP1004; conditions: BLI with biapenem at 1 μg/mL
KP1086 (OXA-48) = assay: Biapenem potentiation (MPC@1), KP1086; conditions: BLI with biapenem at 1 μg/mL
ec302 (TEM-10) [13] = assay: Aztreonam potentiation (MPC@4), ec302; assay type: cell-based; conditions: BLI with aztreonam at 4 μg/mL
EC1010 (CMY-6) [14] = assay: Tigemonam potentiation (MPC@4), EC1010; assay type: cell-based; conditions: BLI with tigemonam at 4 μg/mL
CTX-M-14 = CTX-M-14 (Escherichia coli, UniProt Q9L5C7); assay: Ki, nitrocefin cleavage by purified enzyme, CTX-M-14; assay type: biochemical; conditions: nitrocefin reporter substrate; read-out: Ki (CTX-M-14, NCF)
Method in brief: (§1)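 10 min RT preincubation, enzyme with inhibitor series in reaction buffer. Substrate nitrocefin; kinetic read 490 nm, 10 sec intervals, 10 min total.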

SHV-12 = SHV-12 (Klebsiella pneumoniae, UniProt P0AD64, E235K/G234S/L31Q); assay: Ki, nitrocefin cleavage by purified enzyme, SHV-12; assay type: biochemical; conditions: nitrocefin reporter substrate; read-out: Ki (SHV-12, NCF)
Method in brief: as §1

KPC-2 = KPC-2 (Klebsiella pneumoniae, UniProt Q9F663); assay: Ki, nitrocefin cleavage by purified enzyme, KPC-2; assay type: biochemical; conditions: nitrocefin reporter substrate; read-out: Ki (KPC-2, NCF)
Method in brief: as §1

P99 = P99 (Enterobacter cloacae, UniProt P05364); assay: Ki, nitrocefin cleavage by purified enzyme, P99; assay type: biochemical; conditions: nitrocefin reporter substrate; read-out: Ki (P99, NCF)
Method in brief: as §1

OXA-48 = OXA-48 (Klebsiella pneumoniae, UniProt Q6XEC0); assay: Ki, nitrocefin cleavage by purified enzyme, OXA-48; assay type: biochemical; conditions: nitrocefin reporter substrate; read-out: Ki (OXA-48, NCF)
Method in brief: as §1

Pa AmpC, sequence (P24735 27-397): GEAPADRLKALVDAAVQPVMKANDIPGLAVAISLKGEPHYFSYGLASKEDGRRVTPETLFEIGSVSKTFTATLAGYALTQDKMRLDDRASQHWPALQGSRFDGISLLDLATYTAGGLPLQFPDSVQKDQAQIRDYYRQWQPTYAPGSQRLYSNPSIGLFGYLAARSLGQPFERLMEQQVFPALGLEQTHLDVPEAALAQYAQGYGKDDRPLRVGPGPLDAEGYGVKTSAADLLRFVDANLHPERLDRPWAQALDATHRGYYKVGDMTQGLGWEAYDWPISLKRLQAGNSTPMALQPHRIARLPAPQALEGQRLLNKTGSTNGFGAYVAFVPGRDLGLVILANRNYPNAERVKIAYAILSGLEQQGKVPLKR
KPC-2, sequence (Q9F663 25-293, looked up, species assumed): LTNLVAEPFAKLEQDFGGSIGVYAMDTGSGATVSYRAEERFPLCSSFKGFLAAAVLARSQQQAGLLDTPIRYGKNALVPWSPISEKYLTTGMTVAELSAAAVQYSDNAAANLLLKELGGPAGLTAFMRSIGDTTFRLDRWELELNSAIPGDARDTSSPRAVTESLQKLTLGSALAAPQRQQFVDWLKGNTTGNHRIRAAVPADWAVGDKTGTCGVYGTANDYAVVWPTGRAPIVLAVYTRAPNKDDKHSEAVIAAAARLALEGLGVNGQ
OXA-48, sequence (Q6XEC0 23-265, looked up, species assumed): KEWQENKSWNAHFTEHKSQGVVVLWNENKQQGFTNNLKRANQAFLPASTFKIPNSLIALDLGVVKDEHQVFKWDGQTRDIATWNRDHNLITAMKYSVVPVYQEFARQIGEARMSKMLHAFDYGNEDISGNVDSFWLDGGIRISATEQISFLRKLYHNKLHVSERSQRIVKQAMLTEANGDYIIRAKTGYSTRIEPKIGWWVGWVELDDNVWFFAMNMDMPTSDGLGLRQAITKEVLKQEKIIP
P99, sequence (P05364 21-381): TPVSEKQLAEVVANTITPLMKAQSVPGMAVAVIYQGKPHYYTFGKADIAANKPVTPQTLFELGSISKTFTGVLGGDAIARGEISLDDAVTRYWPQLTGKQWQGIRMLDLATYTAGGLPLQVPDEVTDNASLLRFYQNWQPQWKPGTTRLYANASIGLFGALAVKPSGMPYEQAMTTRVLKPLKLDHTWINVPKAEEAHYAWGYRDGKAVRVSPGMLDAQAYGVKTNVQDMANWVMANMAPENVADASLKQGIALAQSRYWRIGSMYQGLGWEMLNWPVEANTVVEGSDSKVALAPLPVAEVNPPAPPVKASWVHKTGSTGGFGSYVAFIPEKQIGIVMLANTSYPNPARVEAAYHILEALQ
SHV-12, sequence (P0AD64 22-286 L31Q/G234S/E235K): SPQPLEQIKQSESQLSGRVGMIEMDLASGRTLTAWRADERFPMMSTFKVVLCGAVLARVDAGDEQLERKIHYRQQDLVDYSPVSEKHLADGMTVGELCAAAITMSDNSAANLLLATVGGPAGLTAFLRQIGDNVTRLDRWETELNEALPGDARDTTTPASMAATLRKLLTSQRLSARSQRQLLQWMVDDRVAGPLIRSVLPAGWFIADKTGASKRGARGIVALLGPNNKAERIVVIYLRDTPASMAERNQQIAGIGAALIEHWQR
CTX-M-14, sequence (Q9L5C7 29-291): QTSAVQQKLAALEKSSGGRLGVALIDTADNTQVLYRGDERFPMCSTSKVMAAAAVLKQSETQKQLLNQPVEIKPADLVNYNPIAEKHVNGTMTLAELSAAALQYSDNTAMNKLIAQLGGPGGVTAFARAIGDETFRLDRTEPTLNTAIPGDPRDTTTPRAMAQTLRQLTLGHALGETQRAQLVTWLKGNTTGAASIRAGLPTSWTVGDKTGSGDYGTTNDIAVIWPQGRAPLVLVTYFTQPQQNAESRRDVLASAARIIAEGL

CSCC(=O)N[C@H]1Cc2cccc(C(=O)O)c2OB1O [A, reference compound]
AZT MPC4 CTX-M-14 KP1005 (KP1005 (CTX-M-14) [1]): X (MIC of less than 1 ng/mL)
AZT MPC4 CTX-M-15 KP1009 (KP1009 (CTX-M-15) [2]): X (key: X: MIC of less than 1 ng/mL; Y: MIC of 1 μg/mL to 10 μg/mL; Z: MIC of greater than 10 μg/mL)
AZT MPC4 SHV-5 ec308 (ec308 (SHV-5) [3]): X (MIC of less than 1 ng/mL)
AZT MPC4 SHV-12 KP1010 (KP1010 (SHV-12) [4]): X (key: X: MIC of less than 1 ng/mL; Y: MIC of 1 μg/mL to 10 μg/mL; Z: MIC of greater than 10 μg/mL)
AZT MPC4 ECL1002 (ECL1002 [5]): X (MIC of less than 1 ng/mL)
AZT MPC4 CMY-6 EC1010 (EC1010 (CMY-6) [6]): X (key: X: MIC of less than 1 ng/mL; Y: MIC of 1 μg/mL to 10 μg/mL; Z: MIC of greater than 10 μg/mL)
TIG MPC4 CTX-M-14 KP1005 (KP1005 (CTX-M-14) [7]): Y (MIC of 1 μg/mL to 10 μg/mL)
TIG MPC4 CTX-M-15 KP1009 (KP1009 (CTX-M-15) [8]): X (MIC of less than 1 μg/mL)
TIG MPC4 SHV-5 ec308 (ec308 (SHV-5) [9]): X (key: X: MIC of less than 1 μg/mL; Y: MIC of 1 μg/mL to 10 μg/mL; Z: MIC of greater than 10 μg/mL)
TIG MPC4 SHV-12 KP1010 (KP1010 (SHV-12) [10]): X (key: X: MIC of less than 1 μg/mL; Y: MIC of 1 μg/mL to 10 μg/mL; Z: MIC of greater than 10 μg/mL)
TIG MPC4 TEM-10 ec302 (ec302 (TEM-10) [11]): Y (key: X: MIC of less than 1 ng/mL; Y: MIC of 1 μg/mL to 10 μg/mL; Z: MIC of greater than 10 μg/mL)
TIG MPC4 ECL1002 (ECL1002 [12]): X (MIC of less than 1 μg/mL)
Ki (Pa AmpC): 1 to 10 nM
BPM MPC1 KP1004 KPC-2 (KP1004 (KPC-2)): X (MIC of less than 1 μg/mL)
BPM MPC1 OXA-48 KP1086 (KP1086 (OXA-48)): Y (MIC of 1 μg/mL to 10 μg/mL)

O=CN[C@H]1Cc2ccc(F)c(C(=O)O)c2OB1O [Compound 6, (R)-7-fluoro-3-formamido-2-hydroxy-3,4-dihydro-2H-benzo[e][1,2]oxaborinine-8-carboxylic acid]
AZT MPC4 CTX-M-14 KP1005 (KP1005 (CTX-M-14) [1]): Y (MIC of 1 μg/mL to 10 μg/mL)
AZT MPC4 CTX-M-15 KP1009 (KP1009 (CTX-M-15) [2]): Y (key: X: MIC of less than 1 ng/mL; Y: MIC of 1 μg/mL to 10 μg/mL; Z: MIC of greater than 10 μg/mL)
AZT MPC4 SHV-5 ec308 (ec308 (SHV-5) [3]): Y (MIC of 1 μg/mL to 10 μg/mL)
AZT MPC4 TEM-10 ec302 (ec302 (TEM-10) [13]): Y (MIC of 1 μg/mL to 10 μg/mL)
AZT MPC4 ECL1002 (ECL1002 [5]): Y (MIC of 1 μg/mL to 10 μg/mL)
AZT MPC4 CMY-6 EC1010 (EC1010 (CMY-6) [6]): Y (key: X: MIC of less than 1 ng/mL; Y: MIC of 1 μg/mL to 10 μg/mL; Z: MIC of greater than 10 μg/mL)
TIG MPC4 CTX-M-14 KP1005 (KP1005 (CTX-M-14) [7]): Y (MIC of 1 μg/mL to 10 μg/mL)
TIG MPC4 CTX-M-15 KP1009 (KP1009 (CTX-M-15) [8]): Y (MIC of 1 μg/mL to 10 μg/mL)
TIG MPC4 SHV-5 ec308 (ec308 (SHV-5) [9]): Y (key: X: MIC of less than 1 ng/mL; Y: MIC of 1 μg/mL to 10 μg/mL; Z: MIC of greater than 10 μg/mL)
TIG MPC4 SHV-12 KP1010 (KP1010 (SHV-12) [10]): Y (key: X: MIC of less than 1 ng/mL; Y: MIC of 1 μg/mL to 10 μg/mL; Z: MIC of greater than 10 μg/mL)
TIG MPC4 TEM-10 ec302 (ec302 (TEM-10) [11]): Z (key: X: MIC of less than 1 ng/mL; Y: MIC of 1 μg/mL to 10 μg/mL; Z: MIC of greater than 10 μg/mL)
TIG MPC4 ECL1002 (ECL1002 [12]): X (MIC of less than 1 μg/mL)
TIG MPC4 CMY-6 EC1010 (EC1010 (CMY-6) [14]): X (MIC of less than 1 μg/mL)
Ki (CTX-M-14): < 1 nM
Ki (SHV-12): < 1 nM
Ki (KPC-2): > 10 nM
Ki (P99): > 10 nM
Ki (Pa AmpC): > 10 nM
Ki (OXA-48): 1 to 10 nM
BPM MPC1 KP1004 KPC-2 (KP1004 (KPC-2)): X (MIC of less than 1 μg/mL)
BPM MPC1 OXA-48 KP1086 (KP1086 (OXA-48)): Y (MIC of 1 μg/mL to 10 μg/mL)
